US9873709B2 (priority 2013, dated 2018)
pIC50: −log10 of the molar value.

Columns and labels:
[1] = tested on: JAK1-dependent STAT6 phosphorylation downstream of IL-13 stimulation in BEAS-2B human bronchial epithelial cells; assay: cells; settings: read-out: IL13-pSTAT6 BEASB2B IC50
[2] = tested on: JAK1-dependent STAT6 phosphorylation downstream of IL-13 stimulation in TF-1 human erythroleukemia cells; assay: cells; settings: TF-1, read-out: IL-13-pSTAT6 IC50

pIC50 [2]	SMILES	pIC50 [1]
7.47	CN1CCC(N(C)C(=O)c2ccc(Nc3nc4c(N5CCC(O)(c6ccc(Cl)cc6)CC5)cccn4n3)cc2)CC1 [Example 1-17, 4-[[8-[4-(4-chlorophenyl)-4-hydroxy-1-piperidyl]-[1,2,4]triazolo[1,5-a]pyridin-2-yl]amino]-N-methyl-N-(1-methyl-4-piperidyl)benzamide]	6.82
7.99	CNC1CN(C(=O)c2ccc(Nc3nc4c(N5CCC(O)(c6ccc(Cl)cc6)CC5)cccn4n3)cc2)C1 [Example 1-47, [4-[[8-[4-(4-chlorophenyl)-4-hydroxy-1-piperidyl]-[1,2,4]triazolo[1,5-a]pyridin-2-yl]amino]phenyl]-[3-(methylamino)azetidin-1-yl]methanone]	7.24
7.92	O=C(NCCCN1CCOCC1)c1ccc(Nc2nc3c(N4CCC(O)(c5ccc(Cl)cc5)CC4)cccn3n2)cc1 [Example 1-98, 4-[[8-[4-(4-chlorophenyl)-4-hydroxy-1-piperidyl]-[1,2,4]triazolo[1,5-a]pyridin-2-yl]amino]-N-(3-morpholinopropyl) benzamide]	7.37
7.35	CN1CCCC1CCNC(=O)c1ccc(Nc2nc3c(N4CCC(O)(c5ccc(Cl)cc5)CC4)cccn3n2)cc1 (centres unmarked) [Example 1-102, 4-[[8-[4-(4-chlorophenyl)-4-hydroxy-1-piperidyl]-[1,2,4]triazolo[1,5-a]pyridin-2-yl]amino]-N-[2-(1-methylpyrrolidin-2-yl)ethyl]benzamide]	7.26
7.83	O=C(c1ccc(Nc2nc3c(N4CCC(O)(c5ccc(Cl)cc5)CC4)cccn3n2)cc1)N1CCC(N2CCOCC2)C1 (centres unmarked) [Example 1-127, [4-[[8-[4-(4-chlorophenyl)-4-hydroxy-1-piperidyl]-[1,2,4]triazolo[1,5-a]pyridin-2-yl]amino]phenyl]-(3-morpholinopyrrolidin-1-yl)methanone]	7.61
6.97	CN(C)c1cc(CC2CCN(C(=O)c3ccc(Nc4nc5c(N6CCC(O)(c7ccc(Cl)cc7)CC6)cccn5n4)cc3)C2)ncn1 (centres unmarked) [Example 1-151, [4-[[8-[4-(4-chlorophenyl)-4-hydroxy-1-piperidyl]-[1,2,4]triazolo[1,5-a]pyridin-2-yl]amino]phenyl]-[3-[[6-(dimethylamino)pyrimidin-4-yl]methyl]pyrrolidin-1-yl]methanone]	6.78
7.63	O=C(NCCc1ccncc1)c1ccc(Nc2nc3c(N4CCC(O)(c5ccc(Cl)cc5)CC4)cccn3n2)cc1 [Example 1-161, 4-[[8-[4-(4-chlorophenyl)-4-hydroxy-1-piperidyl]-[1,2,4]triazolo[1,5-a]pyridin-2-yl]amino]-N-[2-(4-pyridyl)ethyl]benzamide]	7.31
7.57	CN1CCC(N(C)C(=O)c2ccc(Nc3nc4c(N5CCC(CCO)(c6ccc(Cl)cc6)CC5)cccn4n3)cc2)CC1 [Example 1-255, 4-[[8-[4-(4-chlorophenyl)-4-(2-hydroxyethyl)-1-piperidyl]-[1,2,4]triazolo[1,5-a]pyridin-2-yl]amino]-N-methyl-N-(1-methyl-4-piperidyl)benzamide; formic acid]	6.80
7.03	COCC1(c2ccc(Cl)cc2)CCN(c2cccn3nc(Nc4ccc(C(=O)N(C)C5CCN(C)CC5)cc4)nc23)CC1 [Example 1-258, 4-[[8-[4-(4-chlorophenyl)-4-(methoxymethyl)-1-piperidyl]-[1,2,4]triazolo[1,5-a]pyridin-2-yl]amino]-N-methyl-N-(1-methyl-4-piperidyl)benzamide; formic acid]	5.84
8.52	CN1CCC2CN(C(=O)c3ccc(Nc4nc5c(N6CCC(CO)(c7ccc(Cl)cc7)CC6)cccn5n4)cc3)CC21 (centres unmarked) [Example 1-275, [4-[[8-[4-(4-chlorophenyl)-4-(hydroxymethyl)-1-piperidyl]-[1,2,4]triazolo[1,5-a]pyridin-2-yl]amino]phenyl]-(1-methyl-2,3,3a,4,6,6a-hexahydropyrrolo[2,3-c]pyrrol-5-yl)methanone]	7.26
7.02	O=C(c1ccc(Nc2nc3c(N4CCC(CO)(c5ccc(Cl)cc5)CC4)cccn3n2)cc1)N1CCC(c2ccccn2)CC1 [Example 1-276, [4-[[8-[4-(4-chlorophenyl)-4-(hydroxymethyl)-1-piperidyl]-[1,2,4]triazolo[1,5-a]pyridin-2-yl]amino]phenyl]-[4-(2-pyridyl)-1-piperidyl]methanone]	7.09
7.64	C[C@H]1CN(CCNC(=O)c2ccc(Nc3nc4c(N5CCC(CO)(c6ccc(Cl)cc6)CC5)cccn4n3)cc2)C[C@H](C)O1 [Example 1-277, 4-[[8-[4-(4-chlorophenyl)-4-(hydroxymethyl)-1-piperidyl]-[1,2,4]triazolo[1,5-a]pyridin-2-yl]amino]-N-[2-[(2S,6S)-2,6-dimethylmorpholin-4-yl]ethyl]benzamide]	7.13
7.79	C[C@@H]1CN(CCNC(=O)c2ccc(Nc3nc4c(N5CCC(CO)(c6ccc(Cl)cc6)CC5)cccn4n3)cc2)C[C@H](C)O1 [Example 1-278, 4-[[8-[4-(4-chlorophenyl)-4-(hydroxymethyl)-1-piperidyl]-[1,2,4]triazolo[1,5-a]pyridin-2-yl]amino]-N-[2-[(2R,6S)-2,6-dimethylmorpholin-4-yl]ethyl]benzamide]	7.42
7.55	O=C(c1ccc(Nc2nc3c(N4CCC(CO)(c5ccc(Cl)cc5)CC4)cccn3n2)cc1)N1CCC(c2ccncc2)C1 (centres unmarked) [Example 1-279, [4-[[8-[4-(4-chlorophenyl)-4-(hydroxymethyl)-1-piperidyl]-[1,2,4]triazolo[1,5-a]pyridin-2-yl]amino]phenyl]-[3-(4-pyridyl)pyrrolidin-1-yl]methanone]	7.46
6.90	O=C(NC1CCN(C2CCCC2)CC1)c1ccc(Nc2nc3c(N4CCC(CO)(c5ccc(Cl)cc5)CC4)cccn3n2)cc1 [Example 1-280, 4-[[8-[4-(4-chlorophenyl)-4-(hydroxymethyl)-1-piperidyl]-[1,2,4]triazolo[1,5-a]pyridin-2-yl]amino]-N-(1-cyclopentyl-4-piperidyl)benzamide]	7.28
7.15	C[C@H]1CN(C2CCN(C(=O)c3ccc(Nc4nc5c(N6CCC(CO)(c7ccc(Cl)cc7)CC6)cccn5n4)cc3)CC2)C[C@H](C)O1 [Example 1-281, [4-[[8-[4-(4-chlorophenyl)-4-(hydroxymethyl)-1-piperidyl]-[1,2,4]triazolo[1,5-a]pyridin-2-yl]amino]phenyl]-[4-[(2S,6S)-2,6-dimethylmorpholin-4-yl]-1-piperidyl]methanone]	6.87
7.37	C[C@@H]1CN(C2CCN(C(=O)c3ccc(Nc4nc5c(N6CCC(CO)(c7ccc(Cl)cc7)CC6)cccn5n4)cc3)CC2)C[C@H](C)O1 [Example 1-282, [4-[[8-[4-(4-chlorophenyl)-4-(hydroxymethyl)-1-piperidyl]-[1,2,4]triazolo[1,5-a]pyridin-2-yl]amino]phenyl]-[4-[(2R,6S)-2,6-dimethylmorpholin-4-yl]-1-piperidyl]methanone]	7.25
7.66	CC(C)(CNC(=O)c1ccc(Nc2nc3c(N4CCC(CO)(c5ccc(Cl)cc5)CC4)cccn3n2)cc1)N1CCOCC1 [Example 1-285, 4-[[8-[4-(4-chlorophenyl)-4-(hydroxymethyl)-1-piperidyl]-[1,2,4]triazolo[1,5-a]pyridin-2-yl]amino]-N-(2-methyl-2-morpholino-propyl)benzamide]	7.24
7.65	CCN(Cc1ccncc1)C(=O)c1ccc(Nc2nc3c(N4CCC(CO)(c5ccc(Cl)cc5)CC4)cccn3n2)cc1 [Example 1-287, 4-[[8-[4-(4-chlorophenyl)-4-(hydroxymethyl)-1-piperidyl]-[1,2,4]triazolo[1,5-a]pyridin-2-yl]amino]-N-ethyl-N-(4-pyridylmethyl)benzamide]	7.44
7.55	O=C(c1ccc(Nc2nc3c(N4CCC(CO)(c5ccc(Cl)cc5)CC4)cccn3n2)cc1)N1CCCC1c1ccncc1 (centres unmarked) [Example 1-288, [4-[[8-[4-(4-chlorophenyl)-4-(hydroxymethyl)-1-piperidyl]-[1,2,4]triazolo[1,5-a]pyridin-2-yl]amino]phenyl]-[2-(4-pyridyl)pyrrolidin-1-yl]methanone]	7.17
8.54	CN1CC[C@H]2CN(C(=O)c3ccc(Nc4nc5c(C6=CCN(C(=O)CCC(F)(F)F)CC6)cccn5n4)cc3)C[C@H]21 [Example 2-38, 1-[4-[2-[4-[(3aS,6aS)-1-methyl-2,3,3a,4,6,6a-hexahydropyrrolo[3,4-b]pyrrole-5-carbonyl]anilino]-[1,2,4]triazolo[1,5-a]pyridin-8-yl]-3,6-dihydro-2H-pyridin-1-yl]-4,4,4-trifluoro-butan-1-one]	7.54
8.46	CN1CCCC12CN(C(=O)c1ccc(Nc3nc4c(C5=CCN(C(=O)CCC(F)(F)F)CC5)cccn4n3)cc1)C2 [Example 2-40, 4,4,4-trifluoro-1-[4-[2-[4-(5-methyl-2,5-diazaspiro[3.4]octane-2-carbonyl)anilino]-[1,2,4]triazolo[1,5-a]pyridin-8-yl]-3,6-dihydro-2H-pyridin-1-yl]butan-1-one]	7.73
8.42	O=C(NC1CCN(C2CCCC2)CC1)c1ccc(Nc2nc3c(C4=CCN(C(=O)CCC(F)(F)F)CC4)cccn3n2)cc1 [Example 2-49, N-(1-cyclopentyl-4-piperidyl)-4-[[8-[1-(4,4,4-trifluorobutanoyl)-3,6-dihydro-2H-pyridin-4-yl]-[1,2,4]triazolo[1,5-a]pyridin-2-yl]amino]benzamide]	7.99
–	CCOC(=O)N1CC=C(c2cccn3nc(Nc4ccc(C(=O)N5CCC(N6CCOCC6)C5)cc4)nc23)CC1 (centres unmarked) [Example 2-66, ethyl 4-[2-[4-(3-morpholinopyrrolidine-1-carbonyl)anilino]-[1,2,4]triazolo[1,5-a]pyridin-8-yl]-3,6-dihydro-2H-pyridine-1-carboxylate]	6.65
